Assay results published in patent EP4745137A1 (Gluetacs Therapeutics (Shanghai) Co., Ltd., priority 2023, dated 2025).
Like-named read-outs stand apart in the source and are kept apart here.

Experiments:
[1] = test system: Human acute T lymphocytic leukemia cells (Molt-4); assay: Tumor cell proliferation inhibition (CellTiter-Meiluncell Luminescent Cell Viability Assay), Molt-4; settings: MOLT-4, 96 h, read-out: inhibitory activity (IC50, nM) against tumor cells proliferation, Molt 4
IKZF1 = biological target: T1, IKZF1 (Homo sapiens, UniProt Q13422+Q96SW2); assay: Western-blot assay of substrate protein degradation in hPBMCs, IKZF1; type: cell-based; settings: 24 hours of compound treatment
T1 construct: endogenous in cells; host or cells: hPBMCs (Milecell Biotechnologies)

Jurkat = assay: Tumor cell proliferation inhibition (CellTiter-Meiluncell Luminescent Cell Viability Assay), Jurkat; settings: Homo sapiens, read-out: inhibitory activity (IC50, nM) against tumor cells proliferation, Jurkat
[2] = biological target: T2, human Cereblon WT GST-tagged protein (Homo sapiens, UniProt Q96SW2); assay: CRBN-binding affinity by HTRF (CEREBLON BINDING kit); settings: HTRF inhibitory activity, CEREBLON BINDING kit; read-out: HTRF IC50
T2 construct: purchased CISBIO 64BDCRBNPEH

WEE1 = biological target: T3, WEE1 (Homo sapiens, UniProt P30291+Q96SW2); assay: Western-blot assay of substrate protein degradation in hPBMCs, WEE1; type: cell-based; settings: 24 hours of compound treatment
T3 construct: endogenous in cells; host or cells: hPBMCs (Milecell Biotechnologies)

IKZF3 = biological target: T4, IKZF3 (Homo sapiens, UniProt Q96SW2+Q9UKT9); assay: Western-blot assay of substrate protein degradation in hPBMCs, IKZF3; type: cell-based; settings: 24 hours of compound treatment
T4 construct: endogenous in cells; host or cells: hPBMCs (Milecell Biotechnologies)

CK1α = biological target: T5, CK1α (Homo sapiens, UniProt P48729+Q96SW2); assay: Western-blot assay of substrate protein degradation in hPBMCs, CK1α; type: cell-based; settings: 24 hours of compound treatment
T5 construct: endogenous in cells; host or cells: hPBMCs (Milecell Biotechnologies)

CCRF-CEM = assay: Tumor cell proliferation inhibition (CellTiter-Meiluncell Luminescent Cell Viability Assay), CCRF-CEM; settings: Homo sapiens, 96 h, read-out: inhibitory activity (IC50, nM) against tumor cells proliferation, CCRF-CEM
Experimental: The tumor cells used herein were cultured in a cell culture medium listed in table 2 at 37°C in an incubator with 5% CO2. Prior to experimentation, all cell lines used were correctly identified by STR profiling, and tested negative for mycoplasma contamination using a mycoplasma detection kit through routine screenings.
On the following day, the test compounds of the present disclosure were subjected to serial dilution. […] Subsequently, 0.5 µL of the test compound dilution was transferred into the 96-well plate containing the cells, with each well containing 100 µL of cell culture medium. […] Into the 96-well plate, the diluted test compounds and corresponding detection reagents were added, resulting in final test compound concentrations of 500 nM and 10 nM, respectively. The experimental procedure is described below using the diluted 2 µM test compound as an example.
After the cells were treated with the compounds of the present disclosure for a specified period (the treatment durations were shown in Table 3), the cell viability assay reagent was added to the culture medium according to the kit's instructions to determine cell viability. […] All controls were treated using the same procedure as the compounds of the present disclosure. The growth inhibition curves for the compounds of the present disclosure were plotted using Prism GraphPad software, and the IC50 values were calculated therefrom.

IKZF2 = biological target: T6, IKZF2 (Homo sapiens, UniProt Q96SW2+Q9UKS7); assay: Western-blot assay of substrate protein degradation in hPBMCs, IKZF2; type: cell-based; settings: 24 hours of compound treatment
T6 construct: endogenous in cells; host or cells: hPBMCs (Milecell Biotechnologies)

GSPT1 = biological target: T7, GSPT1 (Homo sapiens, UniProt P15170+Q96SW2); assay: Western-blot assay of substrate protein degradation in hPBMCs, GSPT1; type: cell-based; settings: 24 hours of compound treatment
T7 construct: endogenous in cells; host or cells: hPBMCs (Milecell Biotechnologies)

MM.1R = assay: Tumor cell proliferation inhibition (CellTiter-Meiluncell Luminescent Cell Viability Assay), MM.1R; settings: Homo sapiens, 96 h, read-out: inhibitory activity (IC50, nM) against tumor cells proliferation, MM.1R
CAL-62 = assay: Tumor cell proliferation inhibition (CellTiter-Meiluncell Luminescent Cell Viability Assay), CAL-62; settings: Homo sapiens, CAL-62, 96 h, read-out: inhibitory activity (IC50, nM) against tumor cells proliferation, CAL-62
[3] = test system: Human breast cancer cells (MDA-MB-231); assay: Tumor cell proliferation inhibition (CellTiter-Meiluncell Luminescent Cell Viability Assay), MDA-MB-231; settings: MDA-MB-231, 96 h, read-out: inhibitory activity (IC50, nM) against tumor cells proliferation, MDA-MB-231
NCI-H1975 = assay: Tumor cell proliferation inhibition (CellTiter-Meiluncell Luminescent Cell Viability Assay), NCI-H1975; settings: Homo sapiens, NCI-H1975, 96 h, read-out: inhibitory activity (IC50, nM) against tumor cells proliferation, H1975
[4] = compounds tested at 50 nM and 500 nM (concentration of the table not stated)
[5] = 50 nM and 500 nM tested (concentration behind the class not stated)

T3 sequence (P30291 whole entry): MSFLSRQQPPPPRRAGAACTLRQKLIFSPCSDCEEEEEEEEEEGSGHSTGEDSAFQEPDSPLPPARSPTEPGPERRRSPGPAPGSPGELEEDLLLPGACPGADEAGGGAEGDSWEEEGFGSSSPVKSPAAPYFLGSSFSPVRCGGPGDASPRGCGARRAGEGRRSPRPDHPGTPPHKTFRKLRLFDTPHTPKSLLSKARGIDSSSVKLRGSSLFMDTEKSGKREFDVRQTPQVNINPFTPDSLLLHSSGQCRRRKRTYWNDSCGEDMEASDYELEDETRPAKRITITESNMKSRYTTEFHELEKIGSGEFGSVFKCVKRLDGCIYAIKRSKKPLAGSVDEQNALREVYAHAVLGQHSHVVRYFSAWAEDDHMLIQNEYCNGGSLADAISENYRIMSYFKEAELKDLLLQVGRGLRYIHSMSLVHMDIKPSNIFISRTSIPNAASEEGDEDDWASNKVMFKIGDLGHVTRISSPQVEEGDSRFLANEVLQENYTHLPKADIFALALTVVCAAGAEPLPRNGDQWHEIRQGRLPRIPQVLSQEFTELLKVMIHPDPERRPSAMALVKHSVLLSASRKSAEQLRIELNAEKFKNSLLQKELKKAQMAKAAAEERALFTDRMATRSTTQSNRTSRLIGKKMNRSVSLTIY
T3 sequence (Q96SW2 whole entry): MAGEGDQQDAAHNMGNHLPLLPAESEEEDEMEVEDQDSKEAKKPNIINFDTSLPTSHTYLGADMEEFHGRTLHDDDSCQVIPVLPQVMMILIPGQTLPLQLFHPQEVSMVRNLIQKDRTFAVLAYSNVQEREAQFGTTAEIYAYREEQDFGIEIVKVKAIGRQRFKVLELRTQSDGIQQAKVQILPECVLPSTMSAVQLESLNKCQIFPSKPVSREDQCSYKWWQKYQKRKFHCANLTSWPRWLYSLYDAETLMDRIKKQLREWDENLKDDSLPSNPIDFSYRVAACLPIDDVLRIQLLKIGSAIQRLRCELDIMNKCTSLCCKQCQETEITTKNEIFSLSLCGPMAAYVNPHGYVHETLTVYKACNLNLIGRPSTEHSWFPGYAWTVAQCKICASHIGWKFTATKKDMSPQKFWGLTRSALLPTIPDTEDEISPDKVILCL
T3 sequence (Q16531 whole entry partner): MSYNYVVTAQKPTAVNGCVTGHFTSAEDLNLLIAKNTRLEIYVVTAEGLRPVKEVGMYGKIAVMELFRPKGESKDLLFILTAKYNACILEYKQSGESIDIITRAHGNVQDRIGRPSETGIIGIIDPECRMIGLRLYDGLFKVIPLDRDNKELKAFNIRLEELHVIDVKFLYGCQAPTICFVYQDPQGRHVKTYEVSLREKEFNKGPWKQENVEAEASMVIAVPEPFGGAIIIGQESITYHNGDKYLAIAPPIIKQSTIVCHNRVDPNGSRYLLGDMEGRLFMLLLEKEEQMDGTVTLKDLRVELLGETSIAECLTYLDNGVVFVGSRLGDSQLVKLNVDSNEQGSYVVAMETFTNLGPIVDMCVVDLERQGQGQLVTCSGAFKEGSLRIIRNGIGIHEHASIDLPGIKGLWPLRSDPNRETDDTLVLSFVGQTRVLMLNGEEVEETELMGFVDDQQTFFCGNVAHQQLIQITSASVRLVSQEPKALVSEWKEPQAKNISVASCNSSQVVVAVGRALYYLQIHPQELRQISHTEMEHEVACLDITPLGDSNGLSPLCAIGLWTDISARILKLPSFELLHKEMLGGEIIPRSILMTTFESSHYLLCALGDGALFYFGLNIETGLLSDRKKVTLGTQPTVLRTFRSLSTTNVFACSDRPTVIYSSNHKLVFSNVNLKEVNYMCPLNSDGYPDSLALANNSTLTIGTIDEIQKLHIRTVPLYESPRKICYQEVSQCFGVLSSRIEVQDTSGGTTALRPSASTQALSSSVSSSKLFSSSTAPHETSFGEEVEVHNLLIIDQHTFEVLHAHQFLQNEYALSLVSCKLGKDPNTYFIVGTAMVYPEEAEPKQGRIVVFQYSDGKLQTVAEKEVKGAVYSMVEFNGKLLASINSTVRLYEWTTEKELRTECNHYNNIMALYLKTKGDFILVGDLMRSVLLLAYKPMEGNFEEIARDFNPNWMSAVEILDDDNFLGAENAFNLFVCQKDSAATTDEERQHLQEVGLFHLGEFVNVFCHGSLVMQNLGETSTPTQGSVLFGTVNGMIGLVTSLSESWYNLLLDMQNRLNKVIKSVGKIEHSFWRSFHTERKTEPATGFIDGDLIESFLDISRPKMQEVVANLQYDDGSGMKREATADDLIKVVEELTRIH
T1 sequence (Q13422 whole entry): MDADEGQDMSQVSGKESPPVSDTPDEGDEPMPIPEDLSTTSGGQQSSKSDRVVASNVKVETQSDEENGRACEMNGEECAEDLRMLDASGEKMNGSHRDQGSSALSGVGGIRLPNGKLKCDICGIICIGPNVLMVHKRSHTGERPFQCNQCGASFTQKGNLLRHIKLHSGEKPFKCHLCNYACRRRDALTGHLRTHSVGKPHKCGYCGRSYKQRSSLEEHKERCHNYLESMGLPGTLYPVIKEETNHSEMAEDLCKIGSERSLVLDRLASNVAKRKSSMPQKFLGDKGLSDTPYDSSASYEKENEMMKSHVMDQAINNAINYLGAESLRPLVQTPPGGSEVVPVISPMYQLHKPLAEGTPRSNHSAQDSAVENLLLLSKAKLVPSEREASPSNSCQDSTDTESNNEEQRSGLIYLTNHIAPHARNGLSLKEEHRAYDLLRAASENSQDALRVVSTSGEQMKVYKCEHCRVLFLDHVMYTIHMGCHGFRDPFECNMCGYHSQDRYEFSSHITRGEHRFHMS
T1 sequence (Q96SW2 whole entry): as the sequence (Q96SW2 whole entry) above
T1 sequence (Q16531 whole entry partner): as the sequence (Q16531 whole entry partner) above
T4 sequence (Q9UKT9 whole entry): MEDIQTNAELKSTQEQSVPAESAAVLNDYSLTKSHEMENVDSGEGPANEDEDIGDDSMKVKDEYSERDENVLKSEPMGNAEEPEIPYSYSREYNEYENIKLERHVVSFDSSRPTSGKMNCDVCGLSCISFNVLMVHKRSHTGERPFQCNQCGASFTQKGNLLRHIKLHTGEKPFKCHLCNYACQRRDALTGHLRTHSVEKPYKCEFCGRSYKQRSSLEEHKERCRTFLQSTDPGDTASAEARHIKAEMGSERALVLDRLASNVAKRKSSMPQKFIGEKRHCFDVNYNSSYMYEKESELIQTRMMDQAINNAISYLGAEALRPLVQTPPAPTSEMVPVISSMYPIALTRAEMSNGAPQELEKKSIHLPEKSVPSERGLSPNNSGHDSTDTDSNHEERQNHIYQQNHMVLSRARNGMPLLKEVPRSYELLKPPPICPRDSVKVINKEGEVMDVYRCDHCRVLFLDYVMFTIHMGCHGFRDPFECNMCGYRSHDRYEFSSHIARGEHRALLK
T4 sequence (Q96SW2 whole entry): as the sequence (Q96SW2 whole entry) above
T4 sequence (Q16531 whole entry partner): as the sequence (Q16531 whole entry partner) above
T5 sequence (P48729 whole entry): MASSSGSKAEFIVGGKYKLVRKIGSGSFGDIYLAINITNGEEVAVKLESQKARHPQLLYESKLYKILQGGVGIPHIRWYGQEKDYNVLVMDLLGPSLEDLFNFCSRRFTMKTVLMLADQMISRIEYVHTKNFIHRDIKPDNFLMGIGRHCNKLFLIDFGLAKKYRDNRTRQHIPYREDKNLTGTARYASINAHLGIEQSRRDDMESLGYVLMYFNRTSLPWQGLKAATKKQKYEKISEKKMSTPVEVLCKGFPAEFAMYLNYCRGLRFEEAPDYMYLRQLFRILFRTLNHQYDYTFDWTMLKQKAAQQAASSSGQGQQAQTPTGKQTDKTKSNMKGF
T5 sequence (Q96SW2 whole entry): as the sequence (Q96SW2 whole entry) above
T5 sequence (Q16531 whole entry partner): as the sequence (Q16531 whole entry partner) above
T2 sequence (Q96SW2 whole entry): as the sequence (Q96SW2 whole entry) above
T6 sequence (Q9UKS7 whole entry): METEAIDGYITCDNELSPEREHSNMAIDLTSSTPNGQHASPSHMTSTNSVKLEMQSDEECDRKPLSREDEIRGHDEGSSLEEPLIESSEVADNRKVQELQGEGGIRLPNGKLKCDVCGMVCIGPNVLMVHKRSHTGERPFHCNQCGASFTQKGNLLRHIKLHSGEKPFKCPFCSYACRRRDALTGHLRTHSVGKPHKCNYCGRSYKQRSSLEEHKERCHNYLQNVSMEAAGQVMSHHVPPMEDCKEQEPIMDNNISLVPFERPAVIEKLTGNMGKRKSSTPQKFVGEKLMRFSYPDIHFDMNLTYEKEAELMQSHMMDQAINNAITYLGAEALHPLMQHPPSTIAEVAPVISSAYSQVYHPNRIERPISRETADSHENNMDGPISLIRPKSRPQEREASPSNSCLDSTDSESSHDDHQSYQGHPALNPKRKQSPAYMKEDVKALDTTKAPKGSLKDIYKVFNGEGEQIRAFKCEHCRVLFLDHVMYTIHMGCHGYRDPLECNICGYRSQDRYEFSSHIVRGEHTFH
T6 sequence (Q96SW2 whole entry): as the sequence (Q96SW2 whole entry) above
T6 sequence (Q16531 whole entry partner): as the sequence (Q16531 whole entry partner) above

Row | Structure (SMILES) | IC50 [1] [nM] | IKZF 1 substrate protein remaining % (IKZF1; [4]) | IC50 (Jurkat; 96 h) [nM] | IC50 [2] [nM] | Weel substrate protein remaining % (WEE1; [4]) | IKZF3 substrate protein remaining % (IKZF3; [4]) | CK1a substrate protein remaining % (CK1α; [4]) | IKZF2 substrate protein remaining % (IKZF2; [4]) | GSPT1 substrate protein remaining % (GSPT1; [4]) | IC50 (MM.1R) [nM] | IC50 (CAL-62) [nM] | IC50 [3] [nM] | IC50 (NCI-H1975) [nM] | other results
1 | O=C1CCC(N2Cc3cc(CN4CCN(c5cccc(Cl)c5Cl)CC4)cc(F)c3C2=O)C(=O)N1 (stereo not drawn) [GT-04445, 3-(5-((4-(2,3-dichlorophenyl)piperazin-1-yl)methyl)-7-fluoro-1-oxoisoindolin-2-yl)piperidine-2,6-dione] | 100 to 500 | A (0% ≤ substrate protein remaining % ≤ 80%) | 100 to 500 | 500 to 1000 | B (80%< substrate protein remaining %≤ 100%) | A (0% ≤ substrate protein remaining % ≤ 80%) | B (80%< substrate protein remaining %≤ 100%) | A (0% ≤ substrate protein remaining % ≤ 80%) | A (0% ≤ substrate protein remaining % ≤ 80%) |  |  |  |  | IC50 (CCRF-CEM): 100 to 500 nM
2 | COc1ccc(N2CCN(Cc3ccc4c(c3)CN(C3CCC(=O)NC3=O)C4=O)CC2)cc1 (stereo not drawn) [GT-04447, 3-(5-((4-(4-methoxyphenyl)piperazin-1-yl)methyl)-1-oxoisoindolin-2-yl)piperidine-2,6-dione] | 100 to 500 | A (0% ≤ substrate protein remaining % ≤ 80%) | 100 to 500 | 1000 to 1500 | B (80%< substrate protein remaining %≤ 100%) | A (0% ≤ substrate protein remaining % ≤ 80%) | B (80%< substrate protein remaining %≤ 100%) | A (0% ≤ substrate protein remaining % ≤ 80%) | A (0% ≤ substrate protein remaining % ≤ 80%) | 100 to 500 |  |  |  | IC50 (CCRF-CEM): 100 to 500 nM
3 | O=C1CCC(N2Cc3c(ccc(CN4CCN(c5cccc(Cl)c5Cl)CC4)c3F)C2=O)C(=O)N1 (stereo not drawn) [GT-04526, 3-(5-((4-(2,3-dichlorophenyl)piperazin-1-yl)methyl)-4-fluoro-1-oxoisoindolin-2-yl)piperidine-2,6-dione] | 1 to 5 | A (0% ≤ substrate protein remaining % ≤ 80%) |  | 500 to 1000 | A (0% ≤ substrate protein remaining % ≤ 80%) | A (0% ≤ substrate protein remaining % ≤ 80%) | A (0% ≤ substrate protein remaining % ≤ 80%) | A (0% ≤ substrate protein remaining % ≤ 80%) | A (0% ≤ substrate protein remaining % ≤ 80%) | 1 to 5 | 5 to 10 | 10 to 50 | 10 to 50 | 
4 | O=C1CCC(N2Cc3cc(CN4CCN(c5ccc(F)c(F)c5)CC4)ccc3C2=O)C(=O)N1 (stereo not drawn) [GT-04529, 3-(5-((4-(3,4-difluorophenyl)piperazin-1-yl)methyl)-1-oxoisoindolin-2-yl)piperidine-2,6-dione] | 10 to 50 | A (0% ≤ substrate protein remaining % ≤ 80%) | 10 to 50 | 1500 to 1900 | A (0% ≤ substrate protein remaining % ≤ 80%) | A (0% ≤ substrate protein remaining % ≤ 80%) | A (0% ≤ substrate protein remaining % ≤ 80%) | A (0% ≤ substrate protein remaining % ≤ 80%) | A (0% ≤ substrate protein remaining % ≤ 80%) | 50 to 100 | 100 to 500 |  |  | 
5 | O=C1CCC(N2Cc3cc(CN4CCN(c5cnnc(Cl)c5Cl)CC4)ccc3C2=O)C(=O)N1 (stereo not drawn) [GT-04544, 3-(5-((4-(5,6-dichloropyridazin-4-yl)piperazin-1-yl)methyl)-1-oxoisoindolin-2-yl)piperidine-2,6-dione] |  | A (0% ≤ substrate protein remaining % ≤ 80%) |  | 500 to 1000 | A (0% ≤ substrate protein remaining % ≤ 80%) | A (0% ≤ substrate protein remaining % ≤ 80%) | A (0% ≤ substrate protein remaining % ≤ 80%) | A (0% ≤ substrate protein remaining % ≤ 80%) | A (0% ≤ substrate protein remaining % ≤ 80%) |  | 50 to 100 |  |  | 
6 | O=C1CCC(N2Cc3cc(CN4CCN(c5cccs5)CC4)ccc3C2=O)C(=O)N1 (stereo not drawn) [GT-04545, 3-(1-oxo-5-((4-(thiophen-2-yl)piperazin-1-yl)methyl)isoindolin-2-yl)piperidine-2,6-dione] |  | A (0% ≤ substrate protein remaining % ≤ 80%) |  | < 500 | A (0% ≤ substrate protein remaining % ≤ 80%) | A (0% ≤ substrate protein remaining % ≤ 80%) | A (0% ≤ substrate protein remaining % ≤ 80%) | A (0% ≤ substrate protein remaining % ≤ 80%) | A (0% ≤ substrate protein remaining % ≤ 80%) |  | 100 to 500 |  |  | 
7 | O=C1CCC(N2Cc3cc(CN4CCN(c5ccsc5)CC4)ccc3C2=O)C(=O)N1 (stereo not drawn) [GT-04547, 3-(1-oxo-5-((4-(thiophen-3-yl)piperazin-1-yl)methyl)isoindolin-2-yl)piperidine-2,6-dione] | 100 to 500 | A (0% ≤ substrate protein remaining % ≤ 80%) | 100 to 500 | 500 to 1000 | A (0% ≤ substrate protein remaining % ≤ 80%) | A (0% ≤ substrate protein remaining % ≤ 80%) | A (0% ≤ substrate protein remaining % ≤ 80%) | A (0% ≤ substrate protein remaining % ≤ 80%) | A (0% ≤ substrate protein remaining % ≤ 80%) | 100 to 500 |  |  |  | 
8 | Cc1cscc1N1CCN(Cc2ccc3c(c2)CN(C2CCC(=O)NC2=O)C3=O)CC1 (stereo not drawn) [GT-04548, 3-(5-((4-(4-methylthiophen-3-yl)piperazin-1-yl)methyl)-1-oxoisoindolin-2-yl)piperidine-2,6-dione] | 10 to 50 | A (0% ≤ substrate protein remaining % ≤ 80%) | 10 to 50 | 500 to 1000 | A (0% ≤ substrate protein remaining % ≤ 80%) | A (0% ≤ substrate protein remaining % ≤ 80%) | A (0% ≤ substrate protein remaining % ≤ 80%) | A (0% ≤ substrate protein remaining % ≤ 80%) | A (0% ≤ substrate protein remaining % ≤ 80%) | 10 to 50 |  | 500 to 1000 | 500 to 1000 | 
9 | O=C1CCC(N2Cc3cc(CN4CC=C(c5c[nH]c6cc(F)ccc56)CC4)ccc3C2=O)C(=O)N1 (stereo not drawn) [GT-04722, 3-(5-((4-(6-fluoro-1H-indol-3-yl)-3,6-dihydropyridin-1(2H)-yl)methyl)-1-oxoisoindolin-2-yl)piperidine-2,6-dione] | 50 to 100 | B (80%< substrate protein remaining %≤ 100%) |  | < 500 | B (80%< substrate protein remaining %≤ 100%) | A (0% ≤ substrate protein remaining % ≤ 80%) | A (0% ≤ substrate protein remaining % ≤ 80%) | B (80%< substrate protein remaining %≤ 100%) | A (0% ≤ substrate protein remaining % ≤ 80%) |  |  | 100 to 500 | 100 to 500 | 
10 | O=C1CCC(N2C(=O)c3ccc(CN4CCC(c5ncc6ccsc6n5)CC4)cc3C2=O)C(=O)N1 (stereo not drawn) [GT-06652, 2-(2,6-dioxopiperidin-3-yl)-5-((4-(thieno[2,3-d]pyrimidin-2-yl)piperidin-1-yl)methyl)isoindoline-1,3-dione] |  |  |  |  |  |  |  |  |  |  |  |  |  | IKZF 1 substrate protein remaining % (IKZF1; [5]): B (80%< substrate protein remaining %≤ 100%); IC50 (Jurkat): 100 to 500 nM; Weel substrate protein remaining % (WEE1; [5]): A (0% ≤ substrate protein remaining % ≤ 80%); IKZF3 substrate protein remaining % (IKZF3; [5]): B (80%< substrate protein remaining %≤ 100%); CK1a substrate protein remaining % (CK1α; [5]): B (80%< substrate protein remaining %≤ 100%); IKZF2 substrate protein remaining % (IKZF2; [5]): A (0% ≤ substrate protein remaining % ≤ 80%); GSPT1 substrate protein remaining % (GSPT1; [5]): A (0% ≤ substrate protein remaining % ≤ 80%)
